Measured values as given in PubChem BioAssay AID1845210 (Molecular Pharmacology Branch, DTP, NCI, 2023).

System: NCI-H226 complex tumor spheroids, viability
Assay: Anticancer human tumor NCI-H226 cell line growth inhibition;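 further: spheroids exposed to compound for 7 days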;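 on viability, T/C: 100% = DMSO vehicle control viability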
Details: for IC50: curve of first compound; for viability, T/C: stronger effect = lower value
Summary of the method: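 Single agents and combinations were tested on spheroids built from tumor cells plus HUVEC and hMSC, at half-log dilutions starting at or near clinical Cmax, else 10 microM; final DMSO 0.25% (v/v).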

[1] = second compound 30 pM, first compound 0.0316 µM
[2] = second compound 30 pM, first compound 0.1 µM
[3] = second compound 30 pM, first compound 0.316 µM
[4] = second compound 30 pM, first compound 1 µM
[5] = second compound 30 pM, first compound 3.16 µM
[6] = second compound 30 pM, first compound 10 µM
[7] = second compound 94.9 pM, first compound 0.0316 µM
[8] = second compound 94.9 pM, first compound 0.1 µM
[9] = second compound 94.9 pM, first compound 0.316 µM
[10] = second compound 94.9 pM, first compound 1 µM
[11] = second compound 94.9 pM, first compound 3.16 µM
[12] = second compound 94.9 pM, first compound 10 µM
[13] = second compound 0.0003 µM, first compound 0.0316 µM
[14] = second compound 0.0003 µM, first compound 0.1 µM
[15] = second compound 0.0003 µM, first compound 0.316 µM
[16] = second compound 0.0003 µM, first compound 1 µM
[17] = second compound 0.0003 µM, first compound 3.16 µM
[18] = second compound 0.0003 µM, first compound 10 µM
[19] = second compound 0.000949 µM, first compound 0.0316 µM
[20] = second compound 0.000949 µM, first compound 0.1 µM
[21] = second compound 0.000949 µM, first compound 0.316 µM
[22] = second compound 0.000949 µM, first compound 1 µM
[23] = second compound 0.000949 µM, first compound 3.16 µM
[24] = second compound 0.000949 µM, first compound 10 µM
[25] = second compound 0.003 µM, first compound 0.0316 µM
[26] = second compound 0.003 µM, first compound 0.1 µM
[27] = second compound 0.003 µM, first compound 0.316 µM
[28] = second compound 0.003 µM, first compound 1 µM
[29] = second compound 0.003 µM, first compound 3.16 µM
[30] = second compound 0.003 µM, first compound 10 µM

In the case of `CC1COCCN1c1cc(-c2ccnn2C)c2ccnc(-c3ccn[nH]3)c2n1` (stereo not given) + COc1cc2c(cc1O)CCNC21CSC2c3c(OC(C)=O)c(C)c4c(c3C(COC1=O)N1C(O)C3Cc5cc(C)c(OC)c(O)c5C(C21)N3C)OCO4, the IC50 (second compound 30 pM) is reported as 3.12 µM, the IC50 (second compound 94.9 pM) is reported as > 10 µM and the IC50 (second compound 0.0003 µM) is reported as > 10 µM. For the same compound, the IC50 (second compound 0.000949 µM) was 3.65 µM, the IC50 (second compound 0.003 µM) was < 0.0316 µM and the viability, T/C [1] was 120%. The viability, T/C [2] was 108%, the viability, T/C [3] was 89.1% and the viability, T/C [4] was 61.3%. It also gave a viability, T/C [5] of 50.9%, a viability, T/C [6] of 45.2% and a viability, T/C [7] of 106%. For the same compound, the viability, T/C [8] was 112%, the viability, T/C [9] was 80% and the viability, T/C [10] was 62.1%. For the same compound, the viability, T/C [11] was 53.5%, the viability, T/C [12] was 50.4% and the viability, T/C [13] was 109%. The viability, T/C [14] was 108%, the viability, T/C [15] was 98.9% and the viability, T/C [16] was 71.3%. It also gave a viability, T/C [17] of 57.8%, a viability, T/C [18] of 56.7% and a viability, T/C [19] of 126%. It also gave a viability, T/C [20] of 102%, a viability, T/C [21] of 90.6% and a viability, T/C [22] of 58.8%. For the same compound, the viability, T/C [23] was 53%, the viability, T/C [24] was 43.5% and the viability, T/C [25] was 1.51%. For the same compound, the viability, T/C [26] was 1.41%, the viability, T/C [27] was 1.32% and the viability, T/C [28] was 0.82%. The viability, T/C [29] was 0.74% and the viability, T/C [30] was 0.49%.
In the case of `COc1cc(C)[nH]c(=O)c1CN1CCc2c(Cl)cc(C(OC)C3COC3)c(Cl)c2C1=O` (stereo not given) + COc1cc2c(cc1O)CCNC21CSC2c3c(OC(C)=O)c(C)c4c(c3C(COC1=O)N1C(O)C3Cc5cc(C)c(OC)c(O)c5C(C21)N3C)OCO4, the IC50 (second compound 30 pM) is reported as > 10 µM, the IC50 (second compound 94.9 pM) is reported as > 10 µM and the IC50 (second compound 0.0003 µM) is reported as > 10 µM. For the same compound, the IC50 (second compound 0.000949 µM) was > 10 µM, the IC50 (second compound 0.003 µM) was < 0.0316 µM and the viability, T/C [1] was 115%. It also gave a viability, T/C [2] of 131%, a viability, T/C [3] of 128% and a viability, T/C [4] of 115%. It also gave a viability, T/C [5] of 126%, a viability, T/C [6] of 129% and a viability, T/C [7] of 103%. The viability, T/C [8] was 113%, the viability, T/C [9] was 125% and the viability, T/C [10] was 119%. The viability, T/C [11] was 127%, the viability, T/C [12] was 114% and the viability, T/C [13] was 133%. It also gave a viability, T/C [14] of 133%, a viability, T/C [15] of 130% and a viability, T/C [16] of 148%. For the same compound, the viability, T/C [17] was 140%, the viability, T/C [18] was 136% and the viability, T/C [19] was 103%. The viability, T/C [20] was 119%, the viability, T/C [21] was 111% and the viability, T/C [22] was 115%. The viability, T/C [23] was 114%, the viability, T/C [24] was 109% and the viability, T/C [25] was 3.38%. For the same compound, the viability, T/C [26] was 1.73%, the viability, T/C [27] was 1.1% and the viability, T/C [28] was 1.4%. It also gave a viability, T/C [29] of 1.04% and a viability, T/C [30] of 0.69%.
For `Cc1cc(C)c(CNC(=O)c2cc(-c3ccc(CN4CCOCC4)cc3)cc3c2cnn3C2CCCC2)c(=O)[nH]1` + COc1cc2c(cc1O)CCNC21CSC2c3c(OC(C)=O)c(C)c4c(c3C(COC1=O)N1C(O)C3Cc5cc(C)c(OC)c(O)c5C(C21)N3C)OCO4, the IC50 (second compound 30 pM) was > 10 µM, the IC50 (second compound 94.9 pM) was > 10 µM and the IC50 (second compound 0.0003 µM) was > 10 µM. For the same compound, the IC50 (second compound 0.000949 µM) was > 10 µM, the IC50 (second compound 0.003 µM) was < 0.0316 µM and the viability, T/C [1] was 87.5%. The viability, T/C [2] was 106%, the viability, T/C [3] was 96.8% and the viability, T/C [4] was 93.8%. It also gave a viability, T/C [5] of 86.7%, a viability, T/C [6] of 95.8% and a viability, T/C [7] of 98.3%. It also gave a viability, T/C [8] of 100%, a viability, T/C [9] of 101% and a viability, T/C [10] of 96.6%. For the same compound, the viability, T/C [11] was 83.1%, the viability, T/C [12] was 91.8% and the viability, T/C [13] was 105%. For the same compound, the viability, T/C [14] was 115%, the viability, T/C [15] was 109% and the viability, T/C [16] was 110%. It also gave a viability, T/C [17] of 110%, a viability, T/C [18] of 93.3% and a viability, T/C [19] of 108%. For the same compound, the viability, T/C [20] was 104%, the viability, T/C [21] was 113% and the viability, T/C [22] was 103%. For the same compound, the viability, T/C [23] was 92.3%, the viability, T/C [24] was 97.8% and the viability, T/C [25] was 3.24%. It also gave a viability, T/C [26] of 1.05%, a viability, T/C [27] of 2.46% and a viability, T/C [28] of 0.49%. It also gave a viability, T/C [29] of 0.37% and a viability, T/C [30] of 0.44%.
`Cc1sc2c(c1C)C(c1ccc(Cl)cc1)=NC(CC(=O)Nc1ccc(O)cc1)c1nnc(C)n1-2` (stereo not given) + COc1cc2c(cc1O)CCNC21CSC2c3c(OC(C)=O)c(C)c4c(c3C(COC1=O)N1C(O)C3Cc5cc(C)c(OC)c(O)c5C(C21)N3C)OCO4 was tested, and the IC50 (second compound 30 pM) was > 3 µM, the IC50 (second compound 94.9 pM) was > 3 µM and the IC50 (second compound 0.0003 µM) was > 3 µM. The IC50 (second compound 0.000949 µM) was 0.257 µM, the IC50 (second compound 0.003 µM) was < 0.00949 µM and the viability, T/C (second compound 30 pM, first compound 0.00949 µM) was 97%. It also gave a viability, T/C (second compound 30 pM, first compound 0.03 µM) of 93.1%, a viability, T/C (second compound 30 pM, first compound 0.0949 µM) of 84% and a viability, T/C (second compound 30 pM, first compound 0.3 µM) of 84.9%. The viability, T/C (second compound 30 pM, first compound 0.949 µM) was 68%, the viability, T/C (second compound 30 pM, first compound 3 µM) was 64.8% and the viability, T/C (second compound 94.9 pM, first compound 0.00949 µM) was 105%. For the same compound, the viability, T/C (second compound 94.9 pM, first compound 0.03 µM) was 91.8%, the viability, T/C (second compound 94.9 pM, first compound 0.0949 µM) was 87.1% and the viability, T/C (second compound 94.9 pM, first compound 0.3 µM) was 77.6%. It also gave a viability, T/C (second compound 94.9 pM, first compound 0.949 µM) of 73.9%, a viability, T/C (second compound 94.9 pM, first compound 3 µM) of 66% and a viability, T/C (second compound 0.0003 µM, first compound 0.00949 µM) of 101%. For the same compound, the viability, T/C (second compound 0.0003 µM, first compound 0.03 µM) was 84.7%, the viability, T/C (second compound 0.0003 µM, first compound 0.0949 µM) was 75.2% and the viability, T/C (second compound 0.0003 µM, first compound 0.3 µM) was 75.9%. The viability, T/C (second compound 0.0003 µM, first compound 0.949 µM) was 72.6%, the viability, T/C (second compound 0.0003 µM, first compound 3 µM) was 48.7% and the viability, T/C (second compound 0.000949 µM, first compound 0.00949 µM) was 138%. For the same compound, the viability, T/C (second compound 0.000949 µM, first compound 0.03 µM) was 78.6%, the viability, T/C (second compound 0.000949 µM, first compound 0.0949 µM) was 68.2% and the viability, T/C (second compound 0.000949 µM, first compound 0.3 µM) was 67.1%. The viability, T/C (second compound 0.000949 µM, first compound 0.949 µM) was 19.7%, the viability, T/C (second compound 0.000949 µM, first compound 3 µM) was 7.53% and the viability, T/C (second compound 0.003 µM, first compound 0.00949 µM) was 2.09%. The viability, T/C (second compound 0.003 µM, first compound 0.03 µM) was 0.99%, the viability, T/C (second compound 0.003 µM, first compound 0.0949 µM) was 0.74% and the viability, T/C (second compound 0.003 µM, first compound 0.3 µM) was 0.28%. It also gave a viability, T/C (second compound 0.003 µM, first compound 0.949 µM) of 0.28% and a viability, T/C (second compound 0.003 µM, first compound 3 µM) of 0.51%.
For `[2H]c1nc(C)nc([2H])c1-c1cc(NC[C@@H](C)c2cccc3c(C(=O)NC)ccnc23)ncn1` + COc1cc2c(cc1O)CCNC21CSC2c3c(OC(C)=O)c(C)c4c(c3C(COC1=O)N1C(O)C3Cc5cc(C)c(OC)c(O)c5C(C21)N3C)OCO4, the IC50 (second compound 30 pM) was > 10 µM, the IC50 (second compound 94.9 pM) was > 10 µM and the IC50 (second compound 0.0003 µM) was > 10 µM. For the same compound, the IC50 (second compound 0.000949 µM) was > 10 µM, the IC50 (second compound 0.003 µM) was < 0.0316 µM and the viability, T/C [1] was 99.6%. The viability, T/C [2] was 101%, the viability, T/C [3] was 93% and the viability, T/C [4] was 106%. The viability, T/C [5] was 111%, the viability, T/C [6] was 101% and the viability, T/C [7] was 99.1%. It also gave a viability, T/C [8] of 101%, a viability, T/C [9] of 100% and a viability, T/C [10] of 101%. For the same compound, the viability, T/C [11] was 103%, the viability, T/C [12] was 103% and the viability, T/C [13] was 105%. The viability, T/C [14] was 110%, the viability, T/C [15] was 115% and the viability, T/C [16] was 118%. For the same compound, the viability, T/C [17] was 98.7%, the viability, T/C [18] was 118% and the viability, T/C [19] was 105%. For the same compound, the viability, T/C [20] was 114%, the viability, T/C [21] was 102% and the viability, T/C [22] was 112%. For the same compound, the viability, T/C [23] was 101%, the viability, T/C [24] was 105% and the viability, T/C [25] was 3.26%. The viability, T/C [26] was 3.28%, the viability, T/C [27] was 1.57% and the viability, T/C [28] was 2.56%. It also gave a viability, T/C [29] of 1.3% and a viability, T/C [30] of 0.8%.
